Test results: article PMC7395176, “Retromer stabilization results in neuroprotection in a model of Amyotrophic Lateral Sclerosis” (Nature Communications, 2020)

Columns and labels:
[1] = molecular target: VPS35 (Mus musculus, UniProt Q9EQH3+Q9QZ88); assay: Western blot for VPS35 in spinal cord extracts of treated C57BL6J mice; type: in vivo; design: from tissue; host or cells: mouse (lumbar) spinal cord, motor neurons; conditions: 10 mg/Kg intraperitoneally daily, 1 week
Method: (§1) Compounds 2a, 4a, and standard R55/1 (10 mg/Kg) were intraperitoneally injected in C57BL6J mice daily. After 1 week, mice were sacrificed, saline perfused to avoid CNS contamination by compounds in blood circulation, and SC protein extracts were assayed by WB. […] Therefore, phenyl-1,3-bis-guanylhydrazone 2a was selected as an early lead.

[2] = tested on: Sortilin; assay: Sortilin fluorescence in MNs of treated G93A mice; type: in vivo; conditions: 10 mg/kg, day 100
Text: We next asked whether increasing VPS35/26 protein levels is sufficient to increase retromer functionality. CI-MPR is unstable in VPS26-knockout cells, and we observed a substantial reduction of CI-MPR MFI levels in MNs of vehicle-treated G93A mice compared with WT litters (Fig. 6c). […] Sortilin encodes a receptor belonging to the Vps10 family involved in Frontotemporal Dementia (FTD)[45], which shares functional homologies with MPRs and is another retromer cargo[46].
Fluorescence intensity levels of VPS35, VPS26, CI-MPR, Sortilin, CTSD and Ubiquitin were calculated using NHI-Image J software (US National Institutes of Health) according to the following protocol: stacks of confocal images were used to generate the maximal projections using the Leica Application Suite X (2.0.0.14332) software and then postprocessed by NHI-Image J to crop single NeuN^+ MNs from the ventral horn of the spinal cord. We next performed background (calculated on adjacent slices only receiving secondary antibodies) subtraction for each channel, before applying the NHI-Image J mean filter (with radius 2.0 pixels) to calculate mean NeuN fluorescence levels in individual MNs. Using this approach, we established a region of interest (ROI) to gate single MNs. On this ROI, we measured mean fluoresce levels (MFI) of target proteins.

[3] = tested on: SOD1^G93A-transfected Neuro2a cells; assay: Cell viability of SOD1G93A-transfected Neuro2a cells (colorimetric assay); type: cell-based; conditions: 10 µM
Text: The Golgi apparatus is affected in MNs from ALS patients and in cells overexpressing mutant SOD1 forms[35]–[37]. We transiently transfected Neuro2a cells with plasmids encoding SOD1^G93A before treatment with compound 2a. […] We next determined the viability of Neuro2a cells transfected with SOD1^G93A and exposed to compound 2a using a colorimetric assay. Controls cells received LacZ plasmids. […] We observed a slight, but not significant, reduction of cell viability in […] Neuro2a cells (Fig. 3b). […] The increased cell viability provided by compound 2a could result from unknown, nonspecific off-target effects. Therefore, we used plasmids encoding VPS35 to increase/stabilize the retromer complex. […] However, this phenotype was reverted co-transfecting VPS35 and SOD1^G93A plasmids (Fig. 3c).
Having observed a marked improvement of viability in SOD1^G93A-transfected Neuro2a cells with VPS35 gain of function, we investigated the effect of VPS35 loss of function. We transfected Neuro2a cells with RNAi plasmids encoding a siRNA duplex for VPS35, to knockdown VPS35 and disrupt the retromer assembly. […] By including Sh56 plasmids in the transfection mix, we worsened this phenotype (Fig. 3d). […] We next assayed cytotoxicity by measuring lactate dehydrogenase (LDH) release with a LDH-Glo™ cytotoxicity assay. […]

[4] = Brain uptake of compound 2a by LC-MS/MS in C57BL/6J mice; type: in vivo; conditions: C57BL6J mice, daily intraperitoneal injections 10 mg/kg; 1, 7, 15, 30 days
Method: as §1
Quantification of compound 2a in CNS extracts of C57BL/6J mice was performed at ProMeFa facility (Proteomics and Metabolomics Facility) of San Raffaele Scientific Institute. Wild-type C57BL/6J males mice (P60) were intraperitoneally injected with compound 2a (10 mg/kg) or vehicle, daily. We sacrificed mice at the following time points: 1, 7, 15, and 30 days. Before brains collection, mice received saline perfusion. Brains were weighted (~350 mg each) and rapidly frozen at −80 °C. The extraction was performed with methanol and each biological sample was resuspended in 60 µl of LC/MS grade water and 5 µL were analyzed by LC-MS/MS using the UPLC 1290 (Agilent Technologies) coupled to the TripleTOF 5600+ mass spectrometer (SCIEX). […] Calibration curve in brain was constructed by plotting the peak area versus corresponding quantities of compound 2a (0; 0.1; 0.26; 1 nmol, run in quadruplicates, R2 = 0.9443), using MultiQuant 2.1 software (SCIEX).

[5] = molecular target: T1, VPS29 (Mus musculus, UniProt Q9QZ88); assay: Western blot for VPS29 in treated Neuro2a cells; type: cell-based; conditions: 10 µM, 48 h, WB
T1 construct: endogenous in cells; host or cells: Neuro2a (ATCC CCL-131)
Method: Compound 2a increases VPS26b and VPS29 in Neuro2a […]
a,WBs forVPS26b, VPS29 and β-Tubulin in vehicle- and compound 2a-treated Neuro2a cells(10 μM, 48h, 3x10^5 cells/well).Quantitative analyses of blots (means ± SD) are shown inhistograms (control:n=4 independent wells, 2a: n=5 independent wells examined in one experiment, p<0.0001 for all the comparisons. Two-tailed Student’s test was used to determine the statisticalsignificanceof data, ***p<0.0001
(1 picture or pasted object on this page, not shown here)

SMILES: NC(N)=N/N=C/c1cccc(/C=N/N=C(N)N)c1 [compound 2a, phenyl-1,3-bis-guanylhydrazone]
- VPS35 levels in SC extracts [1]: significantly increased
- Sortilin MFI levels in MNs [2]: significantly increased
- cell viability [3]: cell viability was restored
- access to the CNS (brain uptake) [4]: confirmed its access to the CNS
- VPS29 protein levels [5]: significantly increased
